Where “and” joins values, the source holds several entries; their conditions need not be identical. Equal entries are not always repeated. Where two headings read alike, the source gives them in different places.
What was measured:
α-amylase = details: cited from earlier work
[1] = biological target: T1, Porcine pancreatic α-amylase (Sus scrofa, UniProt P00690); assay: In vitro α-amylase inhibition assay (starch/DNS, absorbance at 540 nm); assay type: biochemical; details: for IC50: 0.2 M potassium phosphate buffer pH 6.8, 37 °C, mean ± SD, triplicate, read-out: IC50 Values against α-Amylase (converted); for inhibited α-amylase more than the analogue without the 2-hydroxyl group: compared with 4-hydroxybenzoic acid (Group 1) or 3,4-dihydroxybenzoic acid (Group 2), Figure 1
T1 construct: purchased Sigma-Aldrich Chemical Co. (St. Louis, MO, USA) A3176
T1 sequence (P00690 16-511): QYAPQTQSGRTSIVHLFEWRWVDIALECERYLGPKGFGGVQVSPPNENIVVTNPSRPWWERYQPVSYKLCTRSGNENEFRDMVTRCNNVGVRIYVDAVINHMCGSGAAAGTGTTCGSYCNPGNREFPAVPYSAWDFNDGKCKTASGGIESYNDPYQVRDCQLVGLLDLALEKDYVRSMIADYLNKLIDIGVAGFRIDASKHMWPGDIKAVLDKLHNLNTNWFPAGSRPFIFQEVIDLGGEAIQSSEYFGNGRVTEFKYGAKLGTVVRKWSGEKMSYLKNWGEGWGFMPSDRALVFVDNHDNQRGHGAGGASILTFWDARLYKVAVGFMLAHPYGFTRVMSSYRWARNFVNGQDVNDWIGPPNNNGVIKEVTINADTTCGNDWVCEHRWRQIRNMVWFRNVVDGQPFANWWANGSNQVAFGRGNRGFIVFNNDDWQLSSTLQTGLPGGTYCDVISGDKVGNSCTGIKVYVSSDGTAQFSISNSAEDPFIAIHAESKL
Procedure: The α-amylase inhibition assay was adapted from Phan et al. with slight modifications. In order to simulate the small intestine conditions, a buffer pH of 6.8 and an incubation temperature of 37 °C were used. Porcine pancreatic α-amylase was dissolved in 0.2 M potassium phosphate buffer (pH 6.8). Phenolic acid solutions were prepared in 80% DMSO. […] An aliquot of 50 μL of phenolic acid solution (10, 20, 30, 40 and 50 mM) was mixed with 400 μL of 0.2 M potassium phosphate buffer (pH 6.8 with 7 mM NaCl) in a 2 mL tube. After adding 100 μL of the enzyme solution (0.5 unit/mL), the tube was incubated at 37 °C for 5 min. Subsequently, 450 μL of the cooked soluble starch solution (5 mg/mL) was added to initiate the reaction at 37 °C for 20 min, followed by the addition of 500 μL of DNS reagent, and then the tubes were boiled for 15 min at 100 °C to inactivate the enzyme. A total of 200 μL of the reaction solution was transferred to a 96-well plate and the absorbance was measured at 540 nm using a microplate reader (Tecan Infinite 200 PRO; Tecan, Männedorf, Zürich, Switzerland). All of the samples were prepared and measured in triplicate. The inhibition rate was calculated using the following formula: (1) Inhibition(%)={1−A[sample]−A[blank]/A[control+]−A[control−]}×100 where:
A [control+] is absorbance at 100% enzyme activity (buffer with starch and enzyme);
A [control−] is starch background absorbance (buffer and starch without enzyme);
A [sample] is test sample absorbance (buffer with enzyme, starch and inhibitor);
A [blank] is inhibitor and starch background absorbance (a test sample without enzyme).
The inhibition rates were plotted against the logarithmic values of six concentrations of the test inhibitor and a non-linear regression analysis was employed to generate a dose-response curve and calculate the IC50 values (mM and mg/mL).

[2] = recent studies, read-out: IC50 for α-amylase
[3] = lower buffer concentration (0.02 M) than in this study, read-out: IC50 previously reported

SMILES | IC50 (α-amylase; [2]) | IC50 [1] | inhibited α-amylase more than the analogue without the 2-hydroxyl group [1] | IC50 (α-amylase; [3])
O=C(O)c1cc(O)ccc1O [2,5-dihydroxybenzoic acid, reference compound] | 0.298 mM | – | – | –
O=C(O)c1ccccc1 [Compound 1, Benzoic acid] | – | 45.2 mM | – | –
O=C(O)c1ccc(O)cc1 [Compound 2, 4-Hydroxybenzoic acid] | – | 25.7 mM | – | –
O=C(O)c1ccc(O)cc1O [Compound 3, 2,4-Dihydroxybenzoic acid] | – | 19.3 mM | 33.31% | –
O=C(O)c1ccc(O)c(O)c1 [Compound 4, 3,4-Dihydroxybenzoic acid] | – | 25.4 mM | – | 11.5 ± 0.45 mM
O=C(O)c1ccc(O)c(O)c1O [Compound 5, 2,3,4-Trihydroxybenzoic acid] | 33.3 mM | 17.3 mM | 46.56% | –
O=C(O)c1c(O)cc(O)cc1O [Compound 6, 2,4,6-Trihydroxybenzoic acid] | – | 20.6 mM | – | –
O=C(O)c1cc(O)c(O)c(O)c1 [Compound 7, 3,4,5-Trihydroxybenzoic acid] | 1.25 mM | 26.1 mM | – | 7.46 ± 0.24 mM
Cc1ccc(C(=O)O)cc1 [Compound 8, 4-Methylbenzoic acid] | – | 52.3 mM | – | –
Cc1cc(O)ccc1C(=O)O [Compound 9, 4-Hydroxy-2-methylbenzoic acid] | – | 23.4 mM | – | –
Cc1cc(C(=O)O)ccc1O [Compound 10, 4-Hydroxy-3-methylbenzoic acid] | – | 28.6 mM | – | –
Cc1cc(C(=O)O)cc(C)c1O [Compound 11, 4-Hydroxy-3,5-dimethylbenzoic acid] | – | 26 mM | – | –
Cc1cc(O)cc(O)c1C(=O)O [Compound 12, 2,4-Dihydroxy-6-methylbenzoic acid] | – | 18.1 mM | – | –
COc1ccc(C(=O)O)cc1 [Compound 13, 4-Methoxybenzoic acid] | – | 44.2 mM and 44.1 mM | – | –
COc1cc(O)ccc1C(=O)O [Compound 14, 4-Hydroxy-2-methoxybenzoic acid] | – | 48.9 mM | – | –
COc1cc(C(=O)O)ccc1O [Compound 15, 4-Hydroxy-3-methoxybenzoic acid] | 27.9 mM | 24.4 mM | – | –
COc1cc(C(=O)O)cc(O)c1O [Compound 16, 3,4-Dihydroxy-5-methoxybenzoic acid] | – | 37.8 mM | – | –
COc1cc(C(=O)O)cc(OC)c1O [Compound 17, 4-Hydroxy-3,5-dimethoxybenzoic acid] | 44.8 mM | 32.2 mM | – | –

Source: paper PMC9102017, “A Structure—Activity Relationship Study of the Inhibition of α-Amylase by Benzoic Acid and Its Derivatives” (Nutrients, 2022)
